Assay results from EP4806435A1, “DIHYDROCHROMENE-DERIVATIVE-CONTAINING THERAPEUTIC AGENT FOR CANCER” (Sumitomo Pharma Co., Ltd., priority 2023, dated 2025).
Read-outs that look alike come from different tables or passages of the source.

Assay: Phase 1 clinical trial: plasma pharmacokinetics
Assay type: in vivo, human
Details: for Tmax / half-life / Cmax / AUC / AUC(0-t): human, plasma, oral; for half-life: read-out: Effective T1/2 (converted); for AUC: tau = 24 hours
Protocol: Summary statistics based on preliminary data were obtained for the pharmacokinetics of Compound 1 in patients receiving once-daily doses ranging from 20 mg to 240 mg (Table 5). The mean plasma concentration-time curves of Compound 1 in the once-daily dose groups ranging from 20 mg to 240 mg are shown in Figure 11. In this study, one cycle consists of 28 days, and Cycle 1 Day 1 refers to Day 1 of the first cycle. […] Accumulation was observed after repeated administration. […] Based on these accumulation ratios, the half-life of Compound 1 was estimated to be approximately 4 days. Based on the currently available data, plasma concentrations are considered to have reached steady state by Day 15.
Summary statistics based on preliminary data were obtained for the pharmacokinetics of Compound 1 in patients in the 20 mg QD, 40 mg QD, 80 mg QD, 120 mg QD, 180 mg QD, 240 mg QD, 360 mg QD, and 480 mg daily (240 mg BID) dose groups (Table 6). The mean plasma concentration-time curves of Compound 1 in the 20 mg QD to 480 mg daily (240 mg BID) dose groups are shown in Figure 12 (in Figure 12, Compound 1 is denoted as "DSP-0390"). In this study, one cycle consists of 28 days, and Cycle 1 Day 1 refers to Day 1 of the first cycle. […] The median Tmax ranged from 2 to 8 hours. Accumulation was observed after repeated administration, and assuming linearity based on the observed accumulation ratios, the estimated elimination half-life was considered to be on the order of several days (approximately 1 to 6 days) (data cut-off: March 2024).

[1] = 480 mg (240 mg BID), cut-off March 2024

CC1(C)Oc2cc(Cl)ccc2[C@@H]2OCC3(CCN(CCn4ccnc4)CC3)C[C@H]21 [Compound 1, (4'aR,10'bR)-8'-chloro-1-[2-(1H-imidazol-1-yl)ethyl]-5',5'-dimethyl-4'a,10'b-dihydro-2'H,4'H,5'H-spiro[piperidine-4,3'-pyrano[3,2-c][1]benzopyran] diphosphate]
AR AUC (accumulation ratio) (20 mg QD, cut-off March 2024): 7.31 | AR Cmax (accumulation ratio) (20 mg QD, cut-off March 2024): 6.52 | AR AUC (mean accumulation ratio) (20 mg, QD, cut-off April 2023): 7.4 | AR Cmax (mean accumulation ratio) (20 mg, QD, cut-off April 2023): 6.1 | AR AUC (accumulation ratio) (40 mg QD, cut-off March 2024): 8.93 | AR Cmax (accumulation ratio) (40 mg QD, cut-off March 2024): 6.04 | AR AUC (mean accumulation ratio) (40 mg, QD, cut-off April 2023): 8.6 | AR Cmax (mean accumulation ratio) (40 mg, QD, cut-off April 2023): 6.2 | AR AUC (accumulation ratio) (80 mg QD, cut-off March 2024): 4.47 | AR Cmax (accumulation ratio) (80 mg QD, cut-off March 2024): 3.70 | AR AUC (mean accumulation ratio) (80 mg, QD, cut-off April 2023): 6.9 | AR Cmax (mean accumulation ratio) (80 mg, QD, cut-off April 2023): 5.8 | AR AUC (accumulation ratio) (120 mg QD, cut-off March 2024): 4.52 | AR Cmax (accumulation ratio) (120 mg QD, cut-off March 2024): 3.53 | AR AUC (mean accumulation ratio) (120 mg, QD, cut-off April 2023): 5.3 | AR Cmax (mean accumulation ratio) (120 mg, QD, cut-off April 2023): 4.6 | AR AUC (accumulation ratio) (180 mg QD, cut-off March 2024): 3.55 | AR Cmax (accumulation ratio) (180 mg QD, cut-off March 2024): 1.89 | AR AUC (mean accumulation ratio) (180 mg, QD, N=1, cut-off April 2023): 3.9 | AR Cmax (mean accumulation ratio) (180 mg, QD, cut-off April 2023): 2 | AR AUC (accumulation ratio) (240 mg QD, cut-off March 2024): 3.29 | AR Cmax (accumulation ratio) (240 mg QD, cut-off March 2024): 1.79 | AR AUC (mean accumulation ratio) (240 mg, QD, N=1, cut-off April 2023): 3.9 | AR Cmax (mean accumulation ratio) (240 mg, QD, cut-off April 2023): 2.6 | AR AUC (accumulation ratio) (360 mg QD, cut-off March 2024): 2.07 | AR Cmax (accumulation ratio) (360 mg QD, cut-off March 2024): 1.36 | AR AUC (accumulation ratio) [1]: 1.61 | AR Cmax (accumulation ratio) [1]: 2.42 | half-life estimated from accumulation ratios (cut-off April 2023): approximately 4 days | Tmax (20 mg QD to 480 mg daily (240 mg BID), cut-off March 2024, read-out: median Tmax, range over dose groups): 2 to 8 h | half-life (20 mg, 20 mg QD, cut-off March 2024): 113 h | Cmax (20 mg, Cycle 1, Day 1, 20 mg QD, cut-off March 2024, read-out: Cmax): 4.28 ng/mL | Tmax (20 mg, Cycle 1, Day 1, 20 mg QD, cut-off March 2024, read-out: Tmax [a] median value): 6 h | AUC (20 mg, Cycle 1, Day 1, 20 mg QD, cut-off March 2024, read-out: AUCtau [b]): 76.6 ng·h/mL | AUC(0-t) (20 mg, Cycle 1 Day 1, 20 mg, QD, cut-off April 2023, read-out: AUC0-24 (geometric mean)): 76 ng·h/mL | AUC(0-t) (20 mg, Cycle 1 Day 1, 20 mg, QD, cut-off April 2023, read-out: AUC0-24 (mean)): 77 ng·h/mL | AUC(0-t) (20 mg, Cycle 1 Day 1, 20 mg, QD, cut-off April 2023, read-out: AUC0-24 (median)): 77 ng·h/mL | Cmax (20 mg, Cycle 1 Day 1, 20 mg, QD, cut-off April 2023, read-out: Cmax (geometric mean)): 4 ng/mL | Cmax (20 mg, Cycle 1 Day 1, 20 mg, QD, cut-off April 2023, read-out: Cmax (mean)): 4 ng/mL | Cmax (20 mg, Cycle 1 Day 1, 20 mg, QD, cut-off April 2023, read-out: Cmax (median)): 4 ng/mL | Tmax (20 mg, Cycle 1 Day 1, 20 mg, QD, cut-off April 2023, read-out: Tmax (mean)): 6 h | Tmax (20 mg, Cycle 1 Day 1, 20 mg, QD, cut-off April 2023, read-out: Tmax (median)): 6 h | Cmax (20 mg, Cycle 2, Day 1, 20 mg QD, cut-off March 2024, read-out: Cmax,ss): 27.9 ng/mL | Tmax (20 mg, Cycle 2, Day 1, 20 mg QD, cut-off March 2024, read-out: Tmax,ss [a] median value): 7 h | AUC (20 mg, Cycle 2, Day 1, 20 mg QD, cut-off March 2024, read-out: AUCtau,ss [b]): 560 ng·h/mL | AUC(0-t) (20 mg, Cycle 2 Day 1, 20 mg, QD, cut-off April 2023, read-out: AUC0-24 (geometric mean)): 557 ng·h/mL | AUC(0-t) (20 mg, Cycle 2 Day 1, 20 mg, QD, cut-off April 2023, read-out: AUC0-24 (mean)): 561 ng·h/mL | AUC(0-t) (20 mg, Cycle 2 Day 1, 20 mg, QD, cut-off April 2023, read-out: AUC0-24 (median)): 561 ng·h/mL | Cmax (20 mg, Cycle 2 Day 1, 20 mg, QD, cut-off April 2023, read-out: Cmax (geometric mean)): 28 ng/mL | Cmax (20 mg, Cycle 2 Day 1, 20 mg, QD, cut-off April 2023, read-out: Cmax (mean)): 28 ng/mL | Cmax (20 mg, Cycle 2 Day 1, 20 mg, QD, cut-off April 2023, read-out: Cmax (median)): 28 ng/mL | Tmax (20 mg, Cycle 2 Day 1, 20 mg, QD, cut-off April 2023, read-out: Tmax (mean)): 7 h | Tmax (20 mg, Cycle 2 Day 1, 20 mg, QD, cut-off April 2023, read-out: Tmax (median)): 7 h | half-life (40 mg, 40 mg QD, cut-off March 2024): 139 h | Cmax (40 mg, Cycle 1, Day 1, 40 mg QD, cut-off March 2024, read-out: Cmax): 9.87 ng/mL | Tmax (40 mg, Cycle 1, Day 1, 40 mg QD, cut-off March 2024, read-out: Tmax [a] median value): 8 h | AUC (40 mg, Cycle 1, Day 1, 40 mg QD, cut-off March 2024, read-out: AUCtau [b]): 131 ng·h/mL | AUC(0-t) (40 mg, Cycle 1 Day 1, 40 mg, QD, cut-off April 2023, read-out: AUC0-24 (geometric mean)): 123 ng·h/mL | AUC(0-t) (40 mg, Cycle 1 Day 1, 40 mg, QD, cut-off April 2023, read-out: AUC0-24 (mean)): 132 ng·h/mL | AUC(0-t) (40 mg, Cycle 1 Day 1, 40 mg, QD, cut-off April 2023, read-out: AUC0-24 (median)): 107 ng·h/mL | Cmax (40 mg, Cycle 1 Day 1, 40 mg, QD, cut-off April 2023, read-out: Cmax (geometric mean)): 8 ng/mL | Cmax (40 mg, Cycle 1 Day 1, 40 mg, QD, cut-off April 2023, read-out: Cmax (mean)): 10 ng/mL | Cmax (40 mg, Cycle 1 Day 1, 40 mg, QD, cut-off April 2023, read-out: Cmax (median)): 7 ng/mL | Tmax (40 mg, Cycle 1 Day 1, 40 mg, QD, cut-off April 2023, read-out: Tmax (mean)): 11 h | Tmax (40 mg, Cycle 1 Day 1, 40 mg, QD, cut-off April 2023, read-out: Tmax (median)): 8 h | Cmax (40 mg, Cycle 2, Day 1, 40 mg QD, cut-off March 2024, read-out: Cmax,ss): 59.6 ng/mL | Tmax (40 mg, Cycle 2, Day 1, 40 mg QD, cut-off March 2024, read-out: Tmax,ss [a] median value): 4 h | AUC (40 mg, Cycle 2, Day 1, 40 mg QD, cut-off March 2024, read-out: AUCtau,ss [b]): 1170 ng·h/mL | AUC(0-t) (40 mg, Cycle 2 Day 1, 40 mg, QD, cut-off April 2023, read-out: AUC0-24 (geometric mean)): 1110 ng·h/mL | AUC(0-t) (40 mg, Cycle 2 Day 1, 40 mg, QD, cut-off April 2023, read-out: AUC0-24 (mean)): 1180 ng·h/mL | AUC(0-t) (40 mg, Cycle 2 Day 1, 40 mg, QD, cut-off April 2023, read-out: AUC0-24 (median)): 1370 ng·h/mL | Cmax (40 mg, Cycle 2 Day 1, 40 mg, QD, cut-off April 2023, read-out: Cmax (geometric mean)): 56 ng/mL | Cmax (40 mg, Cycle 2 Day 1, 40 mg, QD, cut-off April 2023, read-out: Cmax (mean)): 60 ng/mL | Cmax (40 mg, Cycle 2 Day 1, 40 mg, QD, cut-off April 2023, read-out: Cmax (median)): 72 ng/mL | Tmax (40 mg, Cycle 2 Day 1, 40 mg, QD, cut-off April 2023, read-out: Tmax (mean)): 5 h | Tmax (40 mg, Cycle 2 Day 1, 40 mg, QD, cut-off April 2023, read-out: Tmax (median)): 4 h | half-life (80 mg, 80 mg QD, cut-off March 2024): 64.8 h | Cmax (80 mg, Cycle 1, Day 1, 80 mg QD, cut-off March 2024, read-out: Cmax): 17.1 ng/mL | Tmax (80 mg, Cycle 1, Day 1, 80 mg QD, cut-off March 2024, read-out: Tmax [a] median value): 8 h | AUC (80 mg, Cycle 1, Day 1, 80 mg QD, cut-off March 2024, read-out: AUCtau [b]): 264 ng·h/mL | AUC(0-t) (80 mg, Cycle 1 Day 1, 80 mg, QD, cut-off April 2023, read-out: AUC0-24 (geometric mean)): 203 ng·h/mL | AUC(0-t) (80 mg, Cycle 1 Day 1, 80 mg, QD, cut-off April 2023, read-out: AUC0-24 (mean)): 268 ng·h/mL | AUC(0-t) (80 mg, Cycle 1 Day 1, 80 mg, QD, cut-off April 2023, read-out: AUC0-24 (median)): 205 ng·h/mL | Cmax (80 mg, Cycle 1 Day 1, 80 mg, QD, cut-off April 2023, read-out: Cmax (geometric mean)): 13 ng/mL | Cmax (80 mg, Cycle 1 Day 1, 80 mg, QD, cut-off April 2023, read-out: Cmax (mean)): 17 ng/mL | Cmax (80 mg, Cycle 1 Day 1, 80 mg, QD, cut-off April 2023, read-out: Cmax (median)): 15 ng/mL | Tmax (80 mg, Cycle 1 Day 1, 80 mg, QD, cut-off April 2023, read-out: Tmax (mean)): 8 h | Tmax (80 mg, Cycle 1 Day 1, 80 mg, QD, cut-off April 2023, read-out: Tmax (median)): 8 h | Cmax (80 mg, Cycle 2, Day 1, 80 mg QD, cut-off March 2024, read-out: Cmax,ss): 63.2 ng/mL | Tmax (80 mg, Cycle 2, Day 1, 80 mg QD, cut-off March 2024, read-out: Tmax,ss [a] median value): 8 h | AUC (80 mg, Cycle 2, Day 1, 80 mg QD, cut-off March 2024, read-out: AUCtau,ss [b]): 1180 ng·h/mL | AUC(0-t) (80 mg, Cycle 2 Day 1, 80 mg, QD, cut-off April 2023, read-out: AUC0-24 (geometric mean)): 1100 ng·h/mL | AUC(0-t) (80 mg, Cycle 2 Day 1, 80 mg, QD, cut-off April 2023, read-out: AUC0-24 (mean)): 1190 ng·h/mL | AUC(0-t) (80 mg, Cycle 2 Day 1, 80 mg, QD, cut-off April 2023, read-out: AUC0-24 (median)): 1110 ng·h/mL | Cmax (80 mg, Cycle 2 Day 1, 80 mg, QD, cut-off April 2023, read-out: Cmax (geometric mean)): 58 ng/mL | Cmax (80 mg, Cycle 2 Day 1, 80 mg, QD, cut-off April 2023, read-out: Cmax (mean)): 63 ng/mL
